Measured values reported in US20200399238A1, “THERAPEUTIC AURONES” (MIDDLE TENNESSEE STATE UNIVERSITY, priority 2016, published 2020).
Read-outs that look alike come from different tables or passages of the source.

Legend:
[1] = tested on: Trypanosoma brucei brucei 427 cells; test: T. brucei culture and assay (PrestoBlue); assay type: cell-based; details: for IC50: mean of 2(+) independent trials, read-out: IC50 T. brucei
[2] = tested on: Trypanosoma cruzi Tulahuen trypomastigotes; test: T. cruzi extracellular assay (CellTiter Glo); assay type: cell-based; details: for IC50: Trypanosoma cruzi, TULAHUEN; for Selectivity L6/Tc: T. cruzi IC50 from extracellular assay (^b); for Selectivity L6/Tc (T. cruzi value from extracellular assay): L6 IC50 / T. cruzi IC50 (extracellular assay)
[3] = tested on: Leishmania amazonensis promastigotes expressing beta-lactamase; test: microbe, parasite or virus in culture; assay type: cell-based
[4] = tested on: rat skeletal muscle cell line, L6; test: cells; assay type: cell-based
[5] = tested on: Trypanosoma cruzi Tulahuen cells expressing beta-galactosidase; test: T. cruzi intracellular assay (beta-galactosidase, L6 host cells); details: for IC50: Trypanosoma cruzi, TULAHUEN
[6] = tested on: C. albicans (ATCC strain 90028); test: Antifungal microdilution broth assay (PrestoBlue), C. albicans; assay type: cell-based, Candida albicans; details: Candida albicans, ATCC90028, Table 4B; C. albicans; 100 μM; value ± spread; read-out: Percent Inhibition (at 100 μM)
Description: Sigma-Aldrich) was used as the base medium for testing. […] solution of morpholinepropanesulfonic acid (MOPS; Sigma-Aldrich) was added to the RPMI to a final concentration of 0.165 M for buffering (RPMI-MOPS). This medium was adjusted to a pH of 7.0 with 10 M NaOH and filter sterilized. C. albicans (ATCC strain 90028), C. [NT] strain 66032), and C. tropicalis (ATCC strain 750) were cultured on potato dextrose agar (Sigma-Aldrich) plates, and incubated at 35° C. for 24 hours. For antifungal testing, overnight colonies were adjusted to 1.5×10^3 cells/mL, hereafter referred to as the test inoculum. PrestoBlue® (Life Technologies, Invitrogen, Carlsbad, Calif.), a resazurin-based cell viability reagent that, in metabolically active cells, is reduced from blue, non-fluorescent resazurin, to red, fluorescent resorufin, was used to assess inhibition of yeast growth by the aurones. […] Following addition of aurone, plates were then incubated for 24 hours at 35° C. PrestoBlue was added to a final concentration of 10% in each well and fluorescence read at 560 nm excitation and 590 nm emission, per manufacturer instructions, using a SpectraMax M2e spectrophotometer (Molecular Devices, LLC, Sunnyvale, Calif.). To optimize the PrestoBlue reduction time, RFUs were collected at 15 minute intervals for 4 hours using a reference antifungal. […] IC50 determination was calculated using GraphPad Prism version 7.01 for Windows (GraphPad Software, Inc., La Jolla, Calif.) from the RFUs at dilution points. Calculations were made with a nonlinear regression after transforming the molar concentrations of the aurones into the logarithmic form. Graphing was accomplished utilizing the same program following a four parameter curve fitting sigmoidal plot of the data. All aurones and controls were tested in triplicate and all testing was repeated in at least three independent experiments.

[7] = Table 1, ^b extracellular T. cruzi assay, read-out: IC50 T. cruzi
[8] = Table 2, extracellular assay, read-out: IC50 T. cruzi (footnote b: Extracellular T. cruzi assay)
[9] = Leishmania amazonensis, read-out: IC50 L. amaz.
[10] = Table 2, L6 IC50 / L. amazonensis IC50
[11] = Rattus norvegicus, Table 1, read-out: IC50 Toxicity (L6)
[12] = Table 2, L6 mammalian cells, read-out: IC50 Toxicity (L6)
[13] = Table 2, L6 IC50 / T. brucei IC50
[14] = Rattus norvegicus, Table 3A, weighted means of two or more independent trials, read-out: IC50 L6
[15] = read-out: IC50 TC-I, Table 3A, weighted means of two or more independent trials
[16] = read-out: IC50 T. cruzi, Table 1, intracellular assay, mean of 2(+) trials (^c one trial)
[17] = read-out: IC50 T. cruzi, Table 2, intracellular assay, mean of 2(+) independent trials

N=C1/C(=C/c2ccccn2)Oc2ccc(F)cc21 [Aurone 9312, (Z)-5-fluoro-2-(pyridin-2-ylmethylene)benzofuran-3(2H)-imine]
IC50 ([1]; Table 2): > 50 µM
IC50 ([1]; Trypanosoma brucei, Table 1): > 50 µM
IC50 [2, 7]: > 50 µM
IC50 [2, 8]: > 50 µM
IC50 [3, 9]: < 1 µM
Selectivity L6/La ([3]; Table 1): >200
Selectivity L6/La [3, 10]: >200
IC50 ([3]; read-out: IC50 L. amaz., Table 2, mean of 2(+) independent trials): < 1 µM
IC50 [4, 11]: > 200 µM
IC50 [4, 12]: > 200 µM

CC(=O)N1/C(=C\c2ccc(CO)o2)C(=O)c2ccccc21 [AA4A]
IC50 ([1]; Trypanosoma brucei, Table 1): 34.7 µM
IC50 [2, 7]: > 50 µM
IC50 [2, 8]: > 50 µM
IC50 [3, 9]: < 1 µM
IC50 ([3]; Leishmania amazonensis, read-out: IC50 L. amaz. (footnote c: value obtained from one trial)): < 1 µM
IC50 [4, 11]: 87 µM

Cc1cccc(/C=C2\Oc3ccccc3C2=O)c1 [Aurone 9064, (Z)-2-(3-methylbenzylidene)benzofuran-3(2H)-one]
IC50 ([1]; Trypanosoma brucei, Table 1): 32.6 µM
IC50 [2, 7]: 18.4 µM
IC50 [2, 8]: 18.4 µM
IC50 [3, 9]: 4.4 µM
IC50 [4, 11]: 79.9 µM
melting point: 74 to 75 °C

Cc1ccc2c(c1)C(=O)/C(=C/c1ccc(O)cc1)O2 [Aurone 4005, (Z)-2-(4-hydroxybenzylidene)-5-methylbenzofuran-3(2H)-one]
IC50 ([1]; Table 2): > 50 µM
IC50 ([1]; Trypanosoma brucei, Table 1): > 50 µM
IC50 [2, 7]: > 50 µM
IC50 [2, 8]: > 50 µM
IC50 [3, 9]: 3.58 µM
Selectivity L6/La ([3]; Table 1): >27.93
Selectivity L6/La [3, 10]: >27.93
IC50 [4, 11]: > 100 µM
IC50 [4, 12]: > 100 µM
melting point: 228 to 231 °C

O=C1/C(=C/c2ccc(C(F)(F)F)cc2)Oc2ccc(Br)cc21 [Aurone 6001, (Z)-5-bromo-2-(4-(trifluoromethyl)benzylidene)benzofuran-3(2H)-one]
IC50 ([1]; Table 2): > 50 µM
IC50 ([1]; Trypanosoma brucei, Table 1): > 50 µM
IC50 [2, 7]: > 50 µM
IC50 [2, 8]: > 50 µM
IC50 [3, 9]: 7.29 µM
Selectivity L6/La ([3]; Table 1): >13.72
Selectivity L6/La [3, 10]: >13.72
IC50 [4, 11]: > 100 µM
IC50 [4, 12]: > 100 µM
melting point: 120 to 125 °C

O=C1/C(=C/c2ccc(CO)o2)Sc2ccccc21 [TA2]
IC50 ([1]; Trypanosoma brucei, Table 1): 11.4 µM
IC50 [2, 7]: > 50 µM
IC50 [2, 8]: > 50 µM
IC50 [3, 9]: < 1 µM
IC50 [4, 11]: > 200 µM

O=C1/C(=C/c2ccc(Br)cc2)Oc2ccc(Br)cc21 [Aurone 6002, (Z)-5-bromo-2-(4-bromobenzylidene)benzofuran-3(2H)-one]
Selectivity L6/Tb ([1]; Table 1): >2.38
IC50 ([1]; Trypanosoma brucei, Table 1): 42 µM
IC50 [2, 7]: > 50 µM
IC50 [3, 9]: 11 µM
Selectivity L6/La ([3]; Table 1): >9.07
IC50 [4, 11]: > 100 µM
melting point: 126 to 130 °C

Cc1ccc2c(c1)C(=O)/C(=C/c1ccccc1C(F)(F)F)O2 [Aurone 4006, (Z)-5-methyl-2-(2-(trifluoromethyl)benzylidene)benzofuran-3(2H)-one]
Selectivity L6/Tb ([1]; Table 1): 2.41
Selectivity L6/Tb [1, 13]: 2.41
IC50 ([1]; Trypanosoma brucei, Table 1): 30.2 µM
Selectivity L6/Tc ([2]; Table 1): 4.62
Selectivity L6/Tc (T. cruzi value from extracellular assay) ([2]; Table 2): 4.62
IC50 [2, 7]: 15.8 µM
IC50 [2, 8]: 15.8 µM
IC50 [3, 9]: 9.7 µM
Selectivity L6/La ([3]; Table 1): 7.52
Selectivity L6/La [3, 10]: 7.52
IC50 [4, 11]: 72.9 µM
melting point: 121 to 124 °C

O=C1/C(=C/c2cc(Br)cc(Br)c2O)Oc2ccccc21 [Aurone 3012, (Z)-2-(3,5-dibromo-2-hydroxybenzylidene)benzofuran-3(2H)-one]
IC50 ([1]; Table 2): > 50 µM
IC50 ([1]; Trypanosoma brucei, Table 1): > 50 µM
Selectivity L6/Tc ([2]; Table 1): >2.49
Selectivity L6/Tc (T. cruzi value from extracellular assay) ([2]; Table 2): >2.49
IC50 [2, 7]: 40.1 µM
IC50 [2, 8]: 40.1 µM
IC50 [3, 9]: 1.21 µM
Selectivity L6/La ([3]; Table 1): >82.64
Selectivity L6/La [3, 10]: >82.64
IC50 [4, 11]: > 100 µM
IC50 [4, 14]: > 100 µM
IC50 [4, 12]: > 100 µM
IC50 [5, 15]: > 50 µM

N#Cc1ccc(/C=C2\Oc3ccc(Br)cc3C2=O)cc1 [Aurone 6003, (Z)-4-((5-bromo-3-oxobenzofuran-2(3H)-ylidene)methyl)benzonitrile]
Selectivity L6/Tb ([1]; Table 1): >5.85
Selectivity L6/Tb [1, 13]: >5.85
IC50 ([1]; Trypanosoma brucei, Table 1): 17.1 µM
IC50 [2, 7]: > 50 µM
IC50 [2, 8]: > 50 µM
IC50 [3, 9]: 1.22 µM
Selectivity L6/La ([3]; Table 1): >81.97
Selectivity L6/La [3, 10]: >81.97
IC50 [4, 11]: > 100 µM
IC50 [4, 12]: > 100 µM

O=C1/C(=C/c2ccccc2O)Oc2ccccc21 [Aurone 9088, (Z)-2-(2-hydroxybenzylidene)benzofuran-3(2H)-one]
IC50 ([1]; Trypanosoma brucei, Table 1): > 50 µM
IC50 [3, 9]: 9.54 µM
IC50 [4, 11]: > 100 µM
inhibition at 100 µM [6]: 1 ± 1.1%
melting point: 215 to 216 °C
IC50 [5, 16]: 18.4 µM
IC50 [5, 17]: 18.4 µM

Cc1ccc(/C=C2\Oc3cc(O)ccc3C2=O)cc1 [Aurone 2904, (Z)-6-hydroxy-2-(4-methylbenzylidene)benzofuran-3(2H)-one]
IC50 ([1]; Trypanosoma brucei, Table 1): > 50 µM
IC50 [3, 9]: 5.63 µM
IC50 [4, 11]: 70.3 µM
melting point: 258 to 264 °C
IC50 [5, 16]: > 50 µM
IC50 [5, 17]: > 50 µM

CCCCc1ccc(/C=C2\Oc3ccccc3C2=O)cc1 [Aurone 3009, (Z)-2-(4-butylbenzylidene)benzofuran-3(2H)-one]
IC50 ([1]; Table 2): > 50 µM
IC50 ([1]; Trypanosoma brucei, Table 1): > 50 µM
IC50 [3, 9]: 2.36 µM
Selectivity L6/La ([3]; Table 1): 14.84
Selectivity L6/La [3, 10]: 14.84
IC50 [4, 11]: 35 µM
IC50 [4, 14]: 35 µM
melting point: 80 to 81 °C
Selectivity L6/TC-I ([5]; Table 3A, estimated from highest L6 dose tested where no L6 IC50): 4.38
IC50 [5, 16]: > 50 µM
IC50 [5, 17]: > 50 µM
IC50 [5, 15]: 7.99 µM

N#Cc1cccc(/C=C2\Oc3ccccc3C2=O)c1 [Aurone 9070, (Z)-3-((3-oxobenzofuran-2(3H)-ylidene)methyl)benzonitrile]
IC50 ([1]; Trypanosoma brucei, Table 1): 34.7 µM
IC50 [3, 9]: < 1 µM
IC50 [4, 11]: > 200 µM
melting point: 175 to 177 °C
IC50 [5, 16]: 16.7 µM
IC50 [5, 17]: 16.7 µM
